From article PMC10668980, “Molecular Cloning, Heterologous Expression, Purification, and Evaluation of Protein–Ligand Interactions of CYP51 of Candida krusei Azole-Resistant Fungal Strain” (Biomedicines, 2023)
pKd: −log10 of the molar value. Like-named read-outs stand apart in the source and are kept apart here.

Tests used:
[1] = molecular target: T1, C. krusei CYP51 (C.krCYP51) (Pichia kudriavzevii, UniProt A9YUC7, K136R); experiment: biochemical
Procedure: (§1) Dissociation constants of complexes of CYP51 with the substrate, inhibitors, and potential ligands were determined by the spectrophotometric titration method in [37]. Briefly, a protein solution (final concentration of 1 μM) in buffer (50 mM potassium phosphate buffer, pH 7.4) was placed in two cuvettes (1 × 1 cm), and a baseline was recorded on a spectrophotometer at a wavelength of 350–500 nm. The spectra were detected with a Cary 5000 UV-VIS-NIR spectrophotometer. A ligand solution was added to the experimental cuvette and an equal volume of solvent was added to the control cuvette; the change in optical absorption was recorded in the same wavelength range. The solutions in the cuvettes were thoroughly mixed by pipetting after adding the ligand solution or solvent and incubated for 1–2 min. The maximum and minimum absorption values were registered.
(§2) The dissociation constant of the enzyme–ligand complex (Kd) was used as a parameter characterizing the strength of ligand binding in the active site.

[2] = molecular target: T1, C. krusei CYP51 (C.krCYP51); conditions: for ΔAmax: absorbance change at ligand saturation; for Type of Spectral Response: difference spectrum 350–500 nm
Procedure: as §1, §2

T1 sequence (A9YUC7 2-528 K136R): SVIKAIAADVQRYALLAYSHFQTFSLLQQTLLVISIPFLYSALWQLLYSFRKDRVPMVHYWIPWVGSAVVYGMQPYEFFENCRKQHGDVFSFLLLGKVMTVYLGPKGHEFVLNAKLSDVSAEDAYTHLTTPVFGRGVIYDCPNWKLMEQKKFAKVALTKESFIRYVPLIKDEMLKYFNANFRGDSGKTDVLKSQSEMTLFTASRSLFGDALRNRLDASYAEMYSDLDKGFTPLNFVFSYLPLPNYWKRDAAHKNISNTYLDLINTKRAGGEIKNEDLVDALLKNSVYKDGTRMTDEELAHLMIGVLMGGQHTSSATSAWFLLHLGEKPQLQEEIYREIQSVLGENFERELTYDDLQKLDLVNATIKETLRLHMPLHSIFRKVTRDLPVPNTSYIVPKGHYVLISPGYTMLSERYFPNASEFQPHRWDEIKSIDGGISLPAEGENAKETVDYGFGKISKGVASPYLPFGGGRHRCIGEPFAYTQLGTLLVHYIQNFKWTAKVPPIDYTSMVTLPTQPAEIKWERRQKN

Row | SMILES | pKd [1] | ΔAmax ([2]; steroid derivatives) | Type of Spectral Response ([2]; steroid derivatives) | ΔAmax ([2]; azoles) | Type of Spectral Response ([2]; azoles)
1 | CC(C)=CCC[C@@H](C)[C@H]1CC[C@@]2(C)C3=C(CC[C@]12C)[C@@]1(C)CC[C@H](O)C(C)(C)[C@@H]1CC3 [Lanosterol] | 5.55 | 0.031 | type I |  | 
2 | c1ccc(-c2ccc(C(c3ccccc3)n3ccnc3)cc2)cc1 (stereo not drawn) [Bifonazole] | 8.52 |  |  | 0.050 | type II
3 | COC1C(OC2CCC3(C)C(C(O)CC4(O)C3CCC3(C)C(C(C)CCC(OC5OC(CO)C(O)C5O)C(C)C)CC(O)C34)C2O)OCC(O)C1O (stereo not drawn) [Ch-4, granulatoside A] | 5.16 | 0.0099 | type I |  | 
4 | CC(C)C(C=C[C@](C)(O)[C@H]1CC[C@H]2[C@@H]3CC=C4C[C@@H](O)CC[C@]4(C)[C@H]3CC[C@@]21C)=NO [compound 99, 3β,20-dihydroxy-24-hydroxyiminocholest-5,22-diene] | 5.99 | 0.0047 | type I |  | 
5 | CC(=O)O[C@@]12C=C[C@]3(C[C@H]1[N+](=O)[O-])C1CCc4cc(O)ccc4C1CC[C@@]32C (stereo partly drawn) [73c, 14,17-etheno-3-hydroxy-16α-nitroestra-1,3,5(10)-trien-17β-yl acetate] | 4.97 | 0.0069 | type I |  | 
6 | C[C@@H](c1ncncc1F)[C@](O)(Cn1cncn1)c1ccc(F)cc1F [Voriconazole] | 8.00 |  |  | 0.023 | type II
